Measurements as given in paper PMC6839601, “Discovery of selective, antimetastatic and anti-cancer stem cell metallohelices via post-assembly modification” (Chemical Science, 2019).

Legend:
[1] = tested on: HCT116 p53+/+ colon cancer cells; assay: Antiproliferative activity (MTT assay), HCT116 p53+/+; format: cell-based, human; conditions: cells treated for 96 h, mean ± SD, read-out: Cell viability IC50, HCT116 p53+/+ (colon)
Source text: (§1) The human ovarian carcinoma cisplatin-sensitive A2780 cells, cisplatin-resistant A2780cisR (a cisplatin-resistant variant of A2780 cells), human cervical carcinoma HeLa cells, human breast cancer MCF-7 cells and human colorectal carcinoma cells HCT-116 (for experiments performed at the Czech Academy of Sciences) were kindly supplied by Professor B. Keppler, University of Vienna (Austria). Human colon carcinoma cells expressing p53 (HCT116 p53^+/+) were a kind gift of Dr M. Brazdova, Institute of Biophysics, Brno (Czech Republic). […] These solutions were removed, dimethyl sulfoxide was added to each well, and the absorbance at 540 nm was read using a Thermo Scientific Multiskan EX microplate photometer. The IC50 values were determined from a plot of percentage cell survival against drug concentration (in μM). All assays were conducted in triplicate and the mean IC50 ± standard deviation was determined. page 43: 8. […] Cell survival was determined as the absorbance of treated cells minus the blank cell media, divided by the absorbance of the untreated control; this value was expressed as a percentage. The IC50 values were determined from a plot of percentage cell survival against drug concentration (µM). All assays were conducted in triplicate and the mean IC50 ± standard deviation was determined. […]

HCT116 p53-/- (colon) = assay: Antiproliferative activity (MTT assay), HCT116 p53-/-; format: cell-based, human
Source text: as §1

A2780cisR (ovarian) = assay: Antiproliferative activity (MTT assay), A2780cisR; format: cell-based, human; conditions: 72 h, mean ± SD, read-out: Cell viability IC50, A2780cisR (ovarian)
Source text: as §1

[2] = tested on: ARPE-19 (non-cancerous) cells; assay: Antiproliferative activity (MTT assay), ARPE-19; format: cell-based, human; conditions: cells treated for 96 h, mean ± SD, read-out: Cell viability IC50, ARPE-19 (retinal)
Source text: as §1

MRC-5 pd30 (lung) = assay: Antiproliferative activity (MTT assay), MRC-5 pd30; format: cell-based, human; conditions: 72 h, mean ± SD, read-out: Cell viability IC50, MRC-5 pd30 (lung)
Source text: as §1

HMF (breast) = assay: Antiproliferative activity (MTT assay), HMF; format: cell-based; conditions: cells treated for 96 h, mean ± SD, read-out: Cell viability IC50, HMF (breast)
Source text: as §1

WI-38 (lung) = assay: Antiproliferative activity (MTT assay), WI-38; format: cell-based; conditions: cells treated for 96 h, mean ± SD, read-out: Cell viability IC50, WI-38 (lung)
Source text: as §1

## N.N.[Cl][Pt][Cl] [Cisplatin, cisplatin]
[1]
  IC50: 3.3 ± 0.4 µM
HCT116 p53-/- (colon); HCT116 p53-/- vs p53+/+ (Table 1)
  loss of activity towards HCT116 p53-/- cells relative to p53+/+ isogenic clones: > 2 fold
HCT116 p53-/- (colon); MTT, cells treated for 96 h, mean ± SD, read-out: Cell viability IC50, HCT116 p53-/- (colon)
  IC50: 7.5 ± 0.7 µM
A2780cisR (ovarian)
  IC50: 20 ± 3 µM
[2]
  IC50: 6.4 ± 1 µM
MRC-5 pd30 (lung)
  IC50: 12 ± 1 µM
HMF (breast)
  IC50: 18 ± 2 µM
WI-38 (lung)
  IC50: 2.2 ± 0.8 µM
